We go through 90 molecules from ChEMBL document CHEMBL5303711, “ECBD screening data for assay EOS300108” (2023).

Activity calls are given as the source filed them. How the calls were made is not given here.

The nature of the series: Cytotoxicity activity against human HepG2 cells assessed by CellTiter-Glo luminescent cell viability assay. Type of series: toxicity, cell-based. Also noted: assay stage confirmatory assay, source tissue liver. The following applies: HepG2 cells, read-out: IC50 relative.
`CCCCN(CC)CCCNC(=O)c1cc2c(=O)n(C)c3ccccc3c2n1C`: the CC50 was 11.8 µM (active). On to `Cc1cccc(N2CCN(C(=O)C3CCCN(S(=O)(=O)c4ccc5c(c4)oc(=O)n5C)C3)CC2)c1C` (stereo not given), for which the CC50 was 6.1 µM (active). As to `CCN(CC)C(=O)c1sc2[nH]c(-c3ccccn3)nc(=O)c2c1C`, the CC50 is 6 µM (active). With `O=C(NO)c1ccc(I)cc1`, the CC50 was 12.2 µM (active). With `O=C(Cn1ncc(Cl)c(Cl)c1=O)N(Cc1ccco1)CC(F)(F)F`, the CC50 was 6.6 µM (active). For `O=C(Nc1nc(-c2ccccn2)cs1)c1ccc(-n2cncn2)cc1`, the CC50 is 1.5 µM (active). In the case of `COCCN1COc2c(cc(Cl)c3cccnc23)C1`, the CC50 is 7.5 µM (active). For the molecule `CN(C)c1ccnc(CNC(=O)Nc2ncc(C(F)(F)F)s2)c1`, the CC50 is 0.6 µM (active). The value for `Cc1cccc2cc(C(=O)Nc3ccc(N4CCN(C)CC4)cn3)oc12` was 12.6 µM (active). `O=C(Cc1cccc(F)c1)Nc1cccc2ncccc12`: the CC50 was 14.5 µM (inactive). `COc1cc(CNc2cc(C)nc(N)n2)ccc1C`: the CC50 is 6.7 µM (active). `CC(C)n1ncnc1NC(=O)c1cccc(C(F)(F)F)c1O`: the CC50 is 5.6 µM (active).

As to `O=c1[nH]ncc(NCc2ccc(OC[C@H]3CCCO3)cc2)c1Cl`, the CC50 is 4.2 µM (inactive).

Consider `O=C(Nc1cc(Cl)cc2cccnc12)c1ccoc1`, for which the CC50 was 0.3 µM (active). `COC1(C(=O)N2CCO[C@H](c3ccccc3C)C2)CS(=O)(=O)C1`: the CC50 is 8.6 µM (active). For `O=S(=O)(c1c[nH]cn1)N1CCNC[C@H]1c1cccc(Cl)c1`, the CC50 was 50 µM (inactive). `O=C(Nc1nc2ccccc2[nH]1)c1ccc(-n2cccn2)cc1`: the CC50 was 48.2 µM (inactive). The value for `NCCn1cc(C(=O)N2CCN(Cc3ccc(Br)s3)CC2)nn1` was 7.4 µM (active); that for `CC[C@H]1CC[C@@H](C)N(C(=O)c2nc(C3CC3)n3ccccc23)C1` was 7.5 µM (active); that for `CCN(C)C[C@H]1CCN(CCCC2CCCCC2)C1` was 4.5 µM (active). Consider `Cc1cc(SCC#N)n2ncc(-c3ccccc3)c2n1`, for which the CC50 is 0.9 µM (active). `COc1cc(OC)c(OC)cc1CNC(=O)c1cccc2cccnc12`: the CC50 is 12 µM (inactive). As for `COc1cc(OC)cc(C(=O)NCc2nc3ncc(Br)cc3[nH]2)c1`, the CC50 was 3.7 µM (active). For the molecule `CCCCc1cc(NC(=O)[C@H]2CC(=O)N(Cc3ccccc3)C2)[nH]n1`, the CC50 was 1.8 µM (active). In the case of `COc1ccc(C(=O)Nc2ccncc2)cc1S(=O)(=O)N(C)Cc1ccccc1`, the CC50 is 10.3 µM (active). For `Cc1cc(C(=O)Nc2ccccn2)c2ccccc2n1` the value was 2.1 µM (active); for `CN(C)CCNC(=O)Cn1c(Cc2ccccc2)nn(-c2ccc(Cl)cc2)c1=O`, 11.7 µM (active). Consider `O=c1c2ccccc2sn1CN1CCN(c2ccc(C(F)(F)F)cn2)CC1`, for which the CC50 is 8.6 µM (active). For the molecule `NC(=O)c1coc(-c2csc(-c3ccccc3O)n2)c1`, the CC50 is 2.5 µM (active).

On to `CCc1ccc(-c2cc(C(=O)N3C[C@H]4CC[C@@H]3CN(C)C4)[nH]n2)cc1`, for which the CC50 was 13.9 µM (inactive).

Consider `Cc1nc(NC(=O)c2ccc(C)c(Br)c2)n(C)n1`, for which the CC50 was 11.7 µM (active).

Take `COc1c(C)ncnc1NCc1cccc(C(F)(F)F)c1`: the CC50 is 2.9 µM (active). For the molecule `CNC(=O)c1nnn(-c2ccc3ncccc3c2)c1C`, the CC50 is 2.2 µM (active). With `CC1(C)CCCN(c2ccnc(N[C@H]3CCCOCC3)n2)C1`, the CC50 is 8 µM (active).

Consider `Cn1cncc1C(=O)N1CCCN(Cc2ccccc2)c2ccccc21`, for which the CC50 is 11.5 µM (inactive). For `Cc1cc(N2CCN([C@@H](C)c3nc(C(C)(C)C)no3)CC2)nc(C(C)C)n1` the value was 11.9 µM (active); for `Cn1c(NC(=O)c2cccc3cc[nH]c23)nc2ccccc21`, 2.3 µM (active).

For `COc1cc(F)ccc1NC(=O)c1ccc(-c2ccccn2)[nH]c1=O`, the CC50 was 11 µM (active). As for `CCN(c1ccccc1C)S(=O)(=O)c1cn(C)nn1`, the CC50 is 19.9 µM (inactive). Regarding `COc1ccc(-c2nc(CN3CCN(C(=O)c4ccc5c(c4)OCO5)CC3)cs2)cc1`, the CC50 was 7.8 µM (active). For `Cc1cc(C(=O)Nc2cccc(N(C)C(=O)c3coc(C)c3)c2)co1`, the CC50 is 1.3 µM (active). The value for `CNc1snc(C)c1C(=O)N[C@@H](C)c1ccc2c(c1)OCCCO2` was 4.2 µM (active). The value for `Cc1cccc2nc(C(=O)Nc3ccc4c(c3)OC3(CCCC3)O4)cn12` was 11.9 µM (active); that for `COc1ccc(C)cc1CN(C)C(=O)CCN1C(=O)COc2ccccc21` was 5.1 µM (inactive). `O=C(c1cccc2cnccc12)N1CCc2c(nc(-c3ccccc3)[nH]c2=O)C1`: the CC50 was 1.5 µM (active).

For the molecule `COc1ccc(S(=O)(=O)N2CCN(C(=O)c3ccc(-c4ccc(C(C)=O)cc4)o3)CC2)cc1OC`, the CC50 was 8.5 µM (active). As to `COc1cc(-c2ccccc2)sc1C(=O)NC1CC1`, the CC50 is 13.4 µM (active). On to `COc1ccc(CN(CC(=O)c2c(N)n(C)c(=O)n(C)c2=O)[C@@H](C)Cc2cccs2)cc1`, for which the CC50 is 7.2 µM (active). In the case of `O=C(Cn1ncc(Cl)c(Cl)c1=O)NCCC1=CCCCC1`, the CC50 is 4.4 µM (active). The value for `CN(C)C1CCN(CCNC(=O)Nc2ccc(C3CC3)c(F)c2)CC1` was 4.5 µM (active); that for `O=C(NCc1ccc(-n2ccnc2)nc1)c1ccnc(O[C@H]2CCOC2)c1` was 8.9 µM (active); that for `COc1ccc2c(c1)OC(C)(C)CN(C(=O)Nc1nc(C)no1)C2` was 11.9 µM (active). The value for `CCCc1cnc(NC(=O)CCc2nnc(-c3ccsc3)o2)s1` was 8.5 µM (active); that for `COc1ccc(-n2ccc(CNc3ncnc(N)c3Cl)n2)cc1` was 3.1 µM (active). For `CCc1nccn1[C@H]1CCCN(CCOc2ccc(OC)cc2)C1` the value was 4.1 µM (active); for `O=C(Nc1nc(-c2ccco2)cs1)c1cccnc1N1CCOCC1`, 1.6 µM (active); for `c1ccc2c(OCCN3CCC(N4CCCCC4)CC3)cccc2c1`, 6.4 µM (active). In the case of `N#Cc1cnn(C(=O)c2ccc(OCc3ccccc3)cc2)c1N`, the CC50 was 6.1 µM (inactive). For the molecule `Fc1cccc(N2CCCC2)c1CNc1nccc(N[C@H]2CCCOC2)n1`, the CC50 is 6.5 µM (active). As to `Cc1ccc(CN2CCN(C3CCNC3)CC2)c(Cl)c1Cl` (stereo not given), the CC50 was 7.7 µM (active). As for `Cc1cc(C)cc(-n2ncc3c(OCC(=O)N4CCN(C(=O)c5ccco5)CC4)ncnc32)c1`, the CC50 is 3.6 µM (active). The value for `Cc1cccn2c(CC(=O)N3CCOc4ccc(Cl)cc4C3)cnc12` was 4.9 µM (active); that for `Cc1cccc(N2CCN(CC(=O)c3c(N)n(CC(C)C)c(=O)n(C)c3=O)CC2)c1C` was 10.7 µM (active). On to `COc1ccc(C(=O)Nc2ccc(OC3CCN(C)CC3)cc2)c(OC)n1`, for which the CC50 is 13.4 µM (active). As to `COc1ccc(C(=O)N2CCCN(CCc3nc4ccccc4n3C)CC2)cc1`, the CC50 is 11.3 µM (inactive).

For `CCOc1ccc(NC(=O)C2CCN(S(=O)(=O)c3ccc4c(c3)OCCCO4)CC2)cc1`, the CC50 is 50 µM (inactive).

`Cc1noc2ncnc(N3CCC(C(=O)N4CCN(c5cccc(Cl)c5)CC4)CC3)c12`: the CC50 was 9.6 µM (active).

Regarding `N#Cc1ccc(NC(=O)Cn2c(=O)ccn(Cc3ccccc3)c2=O)cc1`, the CC50 was 13.9 µM (inactive). With `COc1ccc2nc(NC(=O)N(C)Cc3nc(C)cs3)sc2c1`, the CC50 was 12.7 µM (inactive).

`CC(=O)c1ccc(-c2ccc(C(=O)Nc3ncc(C)o3)o2)cc1`: the CC50 was 4.2 µM (active). `CCC1(N(C)C)CCN(c2nc(N)c3cc(OC)c(OC)cc3n2)CC1`: the CC50 was 11.2 µM (active). For the molecule `O=C(Nc1ccnc2ccnn12)c1cc2ccccc2c(=O)[nH]1`, the CC50 is 0.1 µM (active). As for `Cc1cccc2nc(C(=O)Nc3cccc4cccnc34)cn12`, the CC50 was 0.1 µM (active). Consider `Cc1occc1-c1cc(NC(=O)N2CCC[C@H]2c2cccn2C)no1`, for which the CC50 is 1.1 µM (active). For the molecule `Cc1ccc([C@H](C)N(C)C(=O)Nc2cc(C(C)C)n[nH]2)cc1`, the CC50 is 5 µM (active). For `CC(C)(C)c1nccc(NC(=O)c2ccc(F)c(C#N)c2)n1`, the CC50 is 1.2 µM (active). Take `CCN(CC)S(=O)(=O)c1ccc(C(=O)Cn2ncc(Cl)c(Cl)c2=O)cc1`: the CC50 is 2 µM (active).

Turning to `NC(=O)c1cnc(NC(=O)c2cccc(S(=O)(=O)N3CCN(c4ccccc4)CC3)c2)s1`, the CC50 is 37.1 µM (inactive). Regarding `COc1ccc(-c2noc(=O)n2Cc2ncc(C)c(OC)c2C)cc1OC`, the CC50 is 6.2 µM (active). The value for `COc1cc(-c2nc(-c3cccs3)no2)cc(OC)c1O` was 0.4 µM (active); that for `Cc1nc(-c2ccccn2)sc1C(=O)Nc1ccccc1O` was 2.8 µM (active); that for `Cc1cc(NC(=O)CN2CCCC[C@@H]2C)n(C)n1` was 50 µM (inactive).

`Cc1ccc(NCc2cc(=O)n3c(C)csc3n2)c(F)c1`: the CC50 is 7.2 µM (active). For `CCn1c(NC(=O)c2ccc(OC)c(OC)c2)nc2cc(C#N)ccc21`, the CC50 is 2.3 µM (active).

For `NCC[C@H](N)C(=O)N1CCC2(CCC(=O)N(Cc3ccccc3)C2)CC1`, the CC50 was 11.5 µM (active). The value for `c1cc2c(cc1C1=NN=C(NC3CC3)SC1)OCO2` was 9.1 µM (active); that for `CCN1C[C@H](CN(C)CC(=O)c2c(N)n(C3CC3)c(=O)[nH]c2=O)Oc2ccccc21` was 13.8 µM (inactive); that for `O=C(Nc1nccs1)c1cccc(S(=O)(=O)N2CCc3ccccc32)c1` was 8.3 µM (active). For the molecule `Cc1ccccc1N1CCN(C(=O)C2CCN(S(=O)(=O)c3ccc4c(c3)OCCCO4)CC2)CC1`, the CC50 was 1.7 µM (active). The value for `Cc1ccc(CC(=O)N2CCN(C(=O)[C@@H]3CCCCO3)CC2)cc1` was 0.6 µM (active).
